From patent US6933296B2, “Compounds effective as β2-adrenoreceptor agonists as well as PDE4-inhibitors” (Altana Pharma B.V., priority 2000, dated 2005)

Legend:
PDE4 = test: Inhibition of PDE4 activity (cytosol from human neutrophils, [3H]cAMP hydrolysis); assay type: biochemical; settings: 0.5 μM cAMP, Motapizone 1 μM, DMSO 0.5% for (some of) examples 1-19, 1% from example 20
Procedure: Method for Measuring Inhibition of PDE4 Activity
PDE4 activity was determined as described by Thompson et al. (Adv Cycl Nucl Res 10: 69-92, 1979) with some modifications (Bauer and Schwabe, Naunyn-Schmiedeberg's Arch Pharmacol 311: 193-198, 1980). At a final assay volume of 200 μl (96well microtiter plates) the assay mixture contained 20 mM Tris-HCl (pH 7.4), 5 mM MgCl2, 0.5 μM cAMP, [^3H]cAMP (about 30,000 cpm/assay), the test compound and an aliquot of cytosol from human neutrophils which mainly contains PDE4 activity as described by Schudt et al. (Naunyn-Schmiedeberg's Arch Pharmacol 344: 682-690, 1991); the PDE3-specific inhibitor Motapizone (1 μM) was included to suppress PDE3 activity originating from contaminating platelets.
To minimize problems with the solubility of the compounds, starting from example 20 serial dilutions of the compounds were prepared directly in DMSO and further diluted 1:100 (v/v) in the assays to obtain now the final concentrations of the inhibitors at a DMSO concentration of 1% (v/v) which by itself only slightly affected PDE4 activity.
After preincubation for 5 min at 37° C., the reaction was started by the addition of substrate (cAMP) and the assays were incubated for further 15 min at 37° C. 50 μl of 0.2 N HCl was added to stop the reaction and the assays were left on ice for about 10 min. Following incubation with 25 μg 5′-nucleotidase (Crotalus atrox snake venom) for 10 min at 37° C., the assays were loaded on QAE Sephadex A-25 (1 ml bed volume). The columns were eluted with 2 ml of 30 mM ammonium formiate (pH 6.0) and the eluate was counted for radioactivity. Results were corrected for blank values (measured in the presence of denatured protein) which were below 5% of total radioactivity. […] The IC50-values for the compounds according to the invention for the inhibition of the PDE4 activity were determined from the concentration-inhibition curves by nonlinear-regression.

β2-adrenoceptor = molecular target: T1, β2-adrenoceptor (Cavia porcellus, UniProt Q8K4Z4); test: β2-Adrenoceptor agonistic activity in isolated guinea-pig trachea (relaxation); assay type: cell-based; settings: half-maximal relaxation of isolated guinea-pig trachea pre-treated with 3×10^−7 M RP 73401; for EC50: read-out: β2-Adrenoceptor agonistic affinity [-logEC50 (mol/l)] (converted)
T1 construct: Male guinea-pigs (350-450 g) were killed by a sharp blow on the head and exsanguination, after that the trachea was removed; from tissue; host or cells: isolated guinea-pig trachea (ring chains in organ bath)
Text: b) β2-Adrenoceptor Agonistic Activity in Isolated Guinea-pig Trachea
Male guinea-pigs (350-450 g) were killed by a sharp blow on the head and exsanguination, after that the trachea was removed. After clearing off adhering tissue the trachea was cut into single rings which were tied together forming up to six 4- to 5-ring chains which were suspended in 10-ml organ baths containing Krebs buffer of the following composition (mM): NaCl 118, KCl 5.2, CaCl2 1.9, MgSO4 0.56, NaH2PO4 0.8, NaHCO3 25.0, and glucose 11.1, maintained at 37° C. and continuously aerated with a mixture of 95% O2 and 5% CO2. The end of the chain was tied at the bottom of the tissue bath and connected to a force-displacement transducer (Type K-30, Hugo Sachs Elektronik, Germany) for the recording of isometric tension changes and then placed under 1.5 to 2 g of tension. After a 60 min equilibration period, during which time the preparations were repeatedly washed and the spontaneous contraction plateaud, each tracheal preparation was pre-treated with 3×10^−7 M of RP 73401 for total inhibition of PDE4, which caused relaxation of the tissue between 30 and 40% of maximum (Harris et al., 1989, JPET 251: 199-206). After stabilization of the relaxant response to RP 73401, the test drugs were administered in a cumulative manner (factor 3), each concentration remaining in contact with the trachea until the […] response reached a plateau, before addition of the next higher concentration. At the end of the test drug administration, which caused maximal relaxation the tissue (verified in control experiments for each test drug by additional administration of 10^−6 M (−)-isoprenaline), a high concentration of the β-adrenoceptor antagonist, dl-sotalol (3−6×10^−4 M), was additionally given to assess whether the relaxant response of the trachea to test compound was due to β2-adrenoceptor stimulation. dl-Sotalol nearly completely reversed the relaxation amplitude to the test compounds and was taken as evidence for their β2-adrenoceptor agonistic property. The relaxant response to test compound was expressed as percent determined between the relaxant amplitude after that reached by RP 73401 (0%) and the maximal relaxation obtained prior to dl-sotalol administration (100%). EC50 values for a half-maximal relaxation of the tissue by test compound were graphically interpolated from 12 to 16 individual concentration-response curve. The −log EC50 values (mol/l) thus obtained were taken as a measure for β2-adrenoceptor agonistic activity of the test compounds.

human eosinophils = test: Inhibition of C5a-stimulated chemiluminescence in human eosinophils; assay type: cell-based; settings: 100 nM C5a, 100 nM salbutamol included as additional cAMP trigger; for IC30: Eosinophil, read-out: Inhibition of C5a-stimulated chemiluminescence [-logIC30 (mol/l)] (converted)
Text: c) Inhibition of C5a-stimulated Chemiluminescence in Human Eosinophils
Eosinophils were purified essentially as described in detail elsewhere (Hatzelmann A, Tenor H and Schudt C, Differential effects of non-selective and selective phosphodiesterase inhibitors on human eosinophil functions. Brit J Pharmacol 114: 821-831, 1995). Briefly, total granulocytes were first purified from blood (anticoagulated with 0.3% w/v sodium citrate) by dextran sedimentation, centrifugation on Ficoll Paque and hypotonic lysis of remaining red blood cells. For the further purification of the eosinophil fraction the magnetic cell separation (MACS) system from Miltenyi Biotec (Bergisch-Gladbach, Germany) was applied. Eosinophils were separated from neutrophils by negative selection using anti-CD16 microbeads in a two-step protocol using D- and BS-(formerly called B2-) separation columns. By this method human eosinophils with a purity of >99% and a viability of >97% were obtained.
The chemiluminescence (CL) assay was essentially performed as described (Hatzelmann et al., 1995). Briefly, measurements were performed in a “CL-buffer” (140 mM NaCl, 5 mM KCl, 1 mM MgCl2, 10 mM HEPES, pH 7.4) containing 1 mM CaCl2, 1 mg/ml glucose, 0.05% (w/v) BSA, 10 μM luminol and 4 μM microperoxidase (all values correspond to final concentrations in the assays) in a total volume of 0.5 ml at a cell concentration of 10^6 cells/ml. Aliquots (0.4 ml) of the cell suspension (containing luminol and microperoxidase) were preincubated for 5 min at 37° C. in the absence or presence of inhibitors (0.05 ml). Stock solutions of the inhibitors (10 mM) were prepared in DMSO and diluted 1:100 (v/v) in CL-buffer; subsequent dilutions were made in 1% DMSO/CL-buffer to achieve the final drug concentrations in the assays at a DMSO concentration of 0.1% (v/v) which by itself only weakly affected the CL response. […] After preincubation, the assays were transferred into a “Multi-biolumat LB 9505C” from Berthold (Wildbad, Germany) and stimulated by the addition of 0.05 ml C5a (dissolved in CL-buffer; 100 nM final concentration). CL was continuously recorded for 1 min (C5a) and the AUC (area under the curve) calculated. Inhibition of CL by the compounds under these conditions is given as −log IC30 (mol/l).

T1 sequence (Q8K4Z4 whole entry): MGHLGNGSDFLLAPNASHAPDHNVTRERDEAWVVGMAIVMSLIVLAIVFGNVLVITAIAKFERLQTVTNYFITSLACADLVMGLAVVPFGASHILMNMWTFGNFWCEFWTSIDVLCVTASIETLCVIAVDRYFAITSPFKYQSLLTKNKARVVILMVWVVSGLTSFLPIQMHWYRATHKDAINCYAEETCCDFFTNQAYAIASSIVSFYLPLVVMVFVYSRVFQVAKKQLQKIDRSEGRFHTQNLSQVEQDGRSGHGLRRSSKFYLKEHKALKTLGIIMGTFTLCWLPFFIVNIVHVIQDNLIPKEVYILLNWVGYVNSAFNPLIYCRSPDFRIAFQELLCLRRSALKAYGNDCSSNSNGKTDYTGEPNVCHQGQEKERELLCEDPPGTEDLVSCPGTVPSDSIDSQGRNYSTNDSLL

| Compound | Inhibition of PDE4 activity [-logIC50] (PDE4) | EC50 (β2-adrenoceptor) [nM] | IC30 (human eosinophils) [nM] | melting point [°C] | β2-Adrenoceptor agonistic affinity [-logEC50 (mol/l)] (β2-adrenoceptor) | Inhibition of C5a-stimulated chemiluminescence [-logIC30 (mol/l)] (human eosinophils) [mol/l] |
| --- | --- | --- | --- | --- | --- | --- |
| COc1ccc(C2=NN(CCCCNCC(O)c3cc(Cl)c(N)c(Cl)c3)C(=O)[C@H]3CCCC[C@@H]23)cc1OC.O=C(O)/C=C/C(=O)O (relative stereo) [Compound 1, (cis)-2-(4-[{2-(4-amino-3,5-dichlorophenyl)-2-hydroxyethyl}-amino]-1-butyl)-4-(3,4-dimethoxyphenyl)-4a,5,6,7,8,8a-hexahydro-2H-phthalazin-1-one fumarate] | 6.97 | 12.9 | 3020 | 85 to 88 |  |  |
| COc1ccc(C2=NN(C3CCN(C(=O)CCCNCC(O)c4cc(Cl)c(N)c(C#N)c4)CC3)C(=O)[C@@H]3CC=CC[C@H]23)cc1OC.O=C(O)/C=C/C(=O)O (stereo partly drawn) [Compound 20, 2-Amino-3-chloro-5-[2-(4-{4-[(4aS,8aR)-4-(3,4-dimethoxy-phenyl)-1-oxo-4a,5,8,8a-tetrahydro-1H-phthalazin-2-yl]-piperidin-1-yl}-4-oxo-butylamino)-1-hydroxy-ethyl]-benzonitrile fumarate] | 10.2 | 2.29 | 79.4 |  |  |  |
| (cis)-2-(4-[{2-(4-amino-3-chloro-5-cyanophenyl)-2-hydroxyethyl}amino]-1-butyl)-4-(3,4-dimethoxyphenyl)-4a,5,8,8a-tetrahydro-2H-phthalazin-1-one hemifumarate [Compound 11] |  |  |  |  | 8.11 -log(mol/l) | 6.22 |
| (cis)-2-(5-[{2-(4-amino-3-chloro-5-cyanophenyl)-2-hydroxyethyl}amino]-1-pentyl)-4-(3,4-dimethoxyphenyl)-4a,5,8,8a-tetrahydro-2H-phthalazin-1-one hemifumarate [Compound 12] |  |  |  |  | 8.61 -log(mol/l) | 5.92 |
| (cis)-2-(6-[{2-(4-amino-3,5-dichlorophenyl)-2-hydroxyethyl}-amino]-1-hexyl)-4-(3,4-dimethoxyphenyl)-4a,5,6,7,8,8a-hexahydro-2H-phthalazin-1-one hemifumarate [Compound 2] |  |  |  |  | 6.86 -log(mol/l) | <5 |
| (cis)-2-(6-[{2-(4-amino-3,5-dichlorophenyl)-2-hydroxyethyl}-amino]-1-hexyl)-4-(3,4-dimethoxyphenyl)-4a,5,8,8a-tetrahydro-2H-phthalazin-1-one hemifumarate [Compound 6] |  |  |  |  | 7.60 -log(mol/l) | 6.00 |
| (cis)-2-(6-[{2-(4-amino-3-chloro-5-cyanophenyl)-2-hydroxyethyl}amino]-1-hexyl)-4-(3,4-dimethoxyphenyl)-4a,5,8,8a-tetrahydro-2H-phthalazin-1-one hemifumarate [Compound 13] |  |  |  |  | 6.91 -log(mol/l) | 6.52 |
| (cis)-2-(8-[{2-(4-amino-3,5-dichlorophenyl)-2-hydroxyethyl}-amino]-1-octyl)-4-(3,4-dimethoxyphenyl)-4a,5,6,7,8,8a-hexahydro-2H-phthalazin-1-one hemifumarate [Compound 3] |  |  |  |  | 6.77 -log(mol/l) | 6.52 |
| (cis)-4-(3,4-dimethoxyphenyl)-2-(6-[{2-(4-hydroxy-3-hydroxymethylphenyl)-2-hydroxyethyl}amino]-1-hexyl)-4a,5,6,7,8,8a-hexahydro-2H-phthalazin-1-one hemifumarate [Compound 14] |  |  |  |  | 7.24 -log(mol/l) | 5.30 |
